In patent publication US10987319B2, “TFEB activator C1 ameliorates app and tau pathology and rescues cognitive deficits in neurodegenerative diseases” (Hong Kong Baptist University, priority 2018, dated 2021):
Read-outs that look alike come from different tables or passages of the source.

Columns and labels:
Type in all cases: in vivo
[1] = Pharmacokinetic study in mice, oral (brain and blood levels by LC/MS/MS); settings: male, mouse, C57BL/6 mice, oral 10 mg/kg, brain
[2] = Distribution of C1 in brain regions, plasma and CSF of rats 30 min after oral dosing; settings: Sprague-Dawley, rat, SD rats, 30 min after oral 10 mg/kg
Experimental: Male C57BL/6 mice and Sprague Dawley rats were purchased from Chinese University of Hong Kong, acclimatized in Hong Kong Baptist university animal house for 2 weeks. Animals were kept for 18 h fasting before the experiment. Curcumin analog C1 and curcumin were suspended in 1% CMC-Na at 10 mg/kg, given to animals through oral route at 10 ml/kg dosing volume. Blood (by heart puncture) and brain samples were collected starting from 0.25, 0.5, 1, 2, 4, 6, 8, 12 and 24 h time points (n=3 for each time point) under chloral hydrate anesthesia at 500 mg/kg (I.P. injection). Based on mice pharmacokinetic study, rat blood, brain and cerebrospinal fluids (CSF) were collected at 30 minutes time point (n=4). All blood samples were collected in heparinized tubes. Plasma was collected by centrifuging at 10,000 rpm for 10 minutes at 4° C. Blood, brain and CSF were stored in −80° C. until further analysis.
Cerebrospinal fluid (CSF) was collected by puncturing Cisterna Magna. Briefly, stereotaxic apparatus (Stoelting, Wood Dale, USA) was used for CSF collection. The tip of CSF collection needle (21G) was placed at the center of stereotaxic apparatus ear bars contact and considered it as zero point. Then rats were anaesthetized with chloral hydrate at 500 mg/kg in saline through intra-peritoneal route. Rats were fixed on the stereotaxic apparatus with 3 cm elevated body position. Rat head was positioned at nearly 110° angle between stereotaxic apparatus frame and rat nose. Cisterna magna location was identified by a 3 mm^2 depressed area between the spine and occipital protuberance in mid-sagittal plane, at 10-12 mm approximate distance from ear. The collection needle was inserted into the Cisterna magna from zero point at A−P: −1.5±1 mm, M−L: 0 mm and D−V: not more than 4-6 mm (from the skin surface). The needle was connected to a 1 ml syringe through a silicon tube. By applying a gentle negative pressure through 1 ml syringe, 100 μl of CSF without any blood contamination was collected.
Whole brain and brain parts were homogenized with 2 weight/volumes of PBS (pH=3.2), spiked with 10 μl of internal standard salbutamol (200 ng/ml in methanol). The homogenate was liquid-liquid extracted with 1 ml of ethyl acetate. 50 μl of 0.5M sodium hydroxide was added to the brain homogenate for efficient C1 extraction. After vigorous sonication and vortex mixing, samples were centrifuged at 15,000 RPM for 10 min. The supernatant was collected and vacuum dried. The samples were reconstituted with 100 μl of mobile phase (0.1% formic acid in acetonitrile), vortex mixed and transferred to an amber colored sampler vial with plastic insert.
100 μl of plasma and CSF was mixed with 100 μl of PBS (pH=3.2), 10 μl of 0.05 M sodium hydroxide and spiked with 10 μl of salbutamol (200 ng/ml in methanol). The mixture was liquid-liquid extracted with 500 μl of ethyl acetate. After vigorous sonication and vortex mixing, samples were centrifuged at 15,000 RPM for 10 min at 4° C. The supernatant was collected and vacuum dried. The samples were reconstituted with 100 μl of mobile phase (0.1% formic acid in acetonitrile), vortex mixed and transferred to an amber colored sampler vial with plastic insert.
UPLC 1290 (Agilent technologies, CA, USA) with binary pump, autosampler system, column with thermostat, vacuum degasser and 6460 QQQ Mass spectrometer was used for compound detection. Chromatographic separation was achieved by waters BEH-C18 (1.7 μm, 2.1×50 mm) column maintained at 40° C. […]

[3] = tested on: APP, APP CTFs, Aβ, LC3-II; test: Western blotting of brain tissue, 5×FAD mice
Experimental: 5×FAD male mice were inbred with wild-type (WT, C57/BL6) female mice to produce heterozygous offspring. Offspring were genotyped to select 5×FAD (APP KM670/671NL (Swedish), APP I716V (Florida), APP V717I (London), PSEN1 M146L (A>C), PSEN1 L286V) gene mutations mice.
(§1) Brain tissues were lysed with RIPA buffer (TBS with 1% NP-40, 1% sodium deoxycholic acid, 0.1% SDS, and protease phosphatase inhibitor cocktails) and centrifuged at 15,000 RPM for 30 min. Supernatant is collected and the pellets were further lysed with 2% SDS in RIPA buffer. Protein concentration was estimated by BCA assay. […] Protein chemiluminescence signal was detected by using ECL kit and quantified using ImageJ software.

[4] = tested on: APP, CTFs, phosphorylated Tau, total Tau, TFEB, LC3-II; test: Western blotting of hippocampus, female 3×Tg mice
Experimental: Homozygous 3×Tg mice (APP KM670/671NL (Swedish), MAPT P301L, PSEN1 M146V) were produced in Hong Kong Baptist University animal house and maintained at 23±2° C. temperature, 60±15% relative humidity with free access to food and water ad libitum.
as §1

[5] = 5×FAD mice, male and female, 10 mg/kg oral 4 months

## COc1ccccc1/C=C/C(=O)/C=C/c1ccccc1OC [Compound C1, 1,5-bis(2-methoxyphenyl)penta-1,4-dien-3-one]
[1]
  Tmax: 30 min
[1]; read-out: maximum concentration (Cmax) in the brain
  Cmax: 1310 ± 89 ng/g
[2]; cerebrospinal fluid, read-out: level of C1 in CSF
  concentration at 30 min: 102 ± 52.4 ng/mL
[2]; frontal cortex, read-out: concentration of C1 in the frontal cortex
  concentration at 30 min: 58 ± 18.6 ng/g
[2]; hippocampus, read-out: concentration of C1 in the hippocampus
  concentration at 30 min: 68.4 ± 21.7 ng/g
[2]; plasma, read-out: level of C1 in plasma
  concentration at 30 min: 352 ± 21.4 ng/mL
[2]; striatum, read-out: concentration of C1 in the striatum
  concentration at 30 min: 4.69 ± 2.19 ng/g
[3]; [5]
  LC3-II levels in brain (autophagy enhancement): increase in LC3-II levels
  levels of A3 in brain: significantly reduced
  levels of APP CTFs in brain: significantly reduced
[3]; female 5×FAD mice, oral 4 months
  Fl-APP levels in brain: reduced Fl-APP levels
[4]; 10 mg/kg oral 7 months
  hippocampal CTFs: significantly reduced
  hippocampal Fl-APP levels: but not Fl-APP levels
[4]; hippocampus, 10 mg/kg oral 7 months
  levels of phosphorylated Tau (PHF1, AT8): significantly decreased
[4]; oral 7 months
  levels of LC3-II: significantly increased
  levels of nuclear TFEB: significantly increased
